According to ChEMBL document CHEMBL4613264, “Design, Synthesis, and Biological Evaluation of New Peripheral 5HT2A Antagonists for Nonalcoholic Fatty Liver Disease” (J Med Chem, 2020):
The source made the active and inactive calls. The calls are words filed in the database; no cut-off is given here.

Columns and labels:
[1] = Stability in human liver microsomes assessed as parent compound remaining measured after 30 mins; format: ADME, Microsome; conditions: read-out: Stability
in vitro = conditions: rat, liver microsomes
Description: Stability in rat liver microsomes assessed as parent compound remaining measured after 30 mins

[2] = Half life in Sprague-Dawley rat at 5 mg/kg, iv by LC-MS/MS analysis; format: ADME, organism-based; conditions: in vivo
Mus musculus [3] = test: Protection against 10 week HFD-induced liver disease in C57BL/6J mouse assessed as reduction in hepatic triglyceride accumulation at 50 to 100 mg/kg, ip administered daily for 10 weeks and measured post last dose by H and E staining based histological analysis; format: functional, organism-based
Mus musculus [4] = test: Protection against 10 week HFD-induced liver disease in C57BL/6J mouse assessed as reduction in liver weight at 50 to 100 mg/kg, ip administered daily for 10 weeks and measured post last dose; format: functional, organism-based
Mus musculus [5] = test: Protection against 10 week HFD-induced liver disease in C57BL/6J mouse assessed as reduction in crownlike structure appearance in epididymal white adipose tissue at 50 to 100 mg/kg, ip administered daily for 10 weeks and measured post last dose by H and E staining based histological analysis; format: functional, organism-based
[6] = biological target: 5-hydroxytryptamine receptor 2B (Homo sapiens) (UniProt P41595); test: Antagonist activity at recombinant human full-length 5HT2B receptor expressed in CHOK1 cells assessed as inhibition of serotonin-induced inositol phosphate accumulation at 1 uM measured after 30 mins by TR-FRET assay relative to control; format: functional, cell-based; conditions: CHO-K1
[7] = Plasma concentration in ICR mouse at 5 mg/kg, iv measured after 0.5 hrs by LC-MS/MS analysis; format: ADME, organism-based
[8] = biological target: T1, 5-hydroxytryptamine receptor 1A (Homo sapiens) (UniProt P08908); test: Antagonist activity at human 5HT1A expressed in mouse BA/F3 cells assessed as inhibition of serotonin-induced cAMP accumulation at 1 uM by fluorescence assay relative to control; format: functional, cell-based; conditions: BaF3
T1 sequence (whole entry): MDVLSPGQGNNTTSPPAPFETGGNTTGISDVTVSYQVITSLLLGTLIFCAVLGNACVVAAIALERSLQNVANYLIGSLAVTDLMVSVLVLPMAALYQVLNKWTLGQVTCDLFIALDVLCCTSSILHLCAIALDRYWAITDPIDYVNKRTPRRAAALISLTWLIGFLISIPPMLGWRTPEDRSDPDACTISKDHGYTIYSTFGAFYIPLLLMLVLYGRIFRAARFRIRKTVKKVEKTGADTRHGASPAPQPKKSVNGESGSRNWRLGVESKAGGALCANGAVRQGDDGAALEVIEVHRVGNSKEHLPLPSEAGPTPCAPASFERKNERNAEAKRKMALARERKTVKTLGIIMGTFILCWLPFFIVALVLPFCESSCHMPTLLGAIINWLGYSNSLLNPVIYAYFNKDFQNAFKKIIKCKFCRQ

Mus musculus [9] = test: Protection against 10 week HFD-induced liver disease in C57BL/6J mouse assessed as reduction in blood glucose level at 100 mg/kg, ip administered daily for 10 weeks and measured 9 weeks post HFD stimulation by IPGTT; format: functional, organism-based
NIH3T3 = test: Cytotoxicity against mouse NIH/3T3 cells; format: cell-based
[10] = Ratio of drug level in brain to plasma of ICR mouse at 5 mg/kg, iv measured after 0.5 hrs by LC-MS/MS analysis; format: ADME, organism-based; conditions: read-out: BPR
Mus musculus [11] = test: Protection against 10 week HFD-induced liver disease in C57BL/6J mouse assessed as reduction in body fat accumulation at 100 mg/kg, ip administered daily for 10 weeks and measured post last dose by NMR analysis; format: functional, organism-based
CHO-K1 = test: Cytotoxicity against CHOK1 cells; format: cell-based; conditions: Cricetulus griseus
[12] = biological target: 5-hydroxytryptamine receptor 1B (Homo sapiens) (UniProt P28222); test: Antagonist activity at recombinant human 5HT1B expressed in human HeLa cells assessed as inhibition of serotonin-induced cAMP accumulation at 1 uM measured after 5 mins by TR-FRET assay relative to control; format: functional, cell-based
[13] = biological target: T2, 5-hydroxytryptamine receptor 3A (Homo sapiens) (UniProt P46098); test: Antagonist activity at 5HT3 (unknown origin) at 1 uM relative to control
T2 sequence (whole entry): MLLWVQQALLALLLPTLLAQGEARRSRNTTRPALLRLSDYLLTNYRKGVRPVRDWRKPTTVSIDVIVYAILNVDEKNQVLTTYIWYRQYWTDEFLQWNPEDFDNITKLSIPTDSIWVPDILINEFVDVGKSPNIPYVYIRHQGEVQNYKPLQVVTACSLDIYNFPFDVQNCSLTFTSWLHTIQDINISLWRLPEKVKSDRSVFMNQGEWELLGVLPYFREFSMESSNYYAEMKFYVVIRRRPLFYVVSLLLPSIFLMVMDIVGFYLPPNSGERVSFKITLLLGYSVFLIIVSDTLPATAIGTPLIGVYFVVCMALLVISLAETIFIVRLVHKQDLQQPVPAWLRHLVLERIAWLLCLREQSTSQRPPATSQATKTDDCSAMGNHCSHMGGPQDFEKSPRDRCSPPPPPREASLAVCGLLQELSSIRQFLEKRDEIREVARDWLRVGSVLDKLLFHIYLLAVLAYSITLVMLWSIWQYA

[14] = AUC (infinity) in Sprague-Dawley rat at 5 mg/kg, iv by LC-MS/MS analysis; format: ADME, organism-based; design: dose 5 mg/kg, time infinity, route intravenous; conditions: in vivo
[15] = Clearance in Sprague-Dawley rat at 5 mg/kg, iv by LC-MS/MS analysis; format: ADME, organism-based; conditions: in vivo
Vero = test: Cytotoxicity against African green monkey Vero cells; format: cell-based; conditions: Chlorocebus sabaeus
[16] = Volume of distribution at steady state in Sprague-Dawley rat at 5 mg/kg, iv by LC-MS/MS analysis; format: ADME, organism-based; conditions: in vivo, read-out: Vdss
L929 = test: Cytotoxicity against mouse L929 cells; format: cell-based
[17] = biological target: T3, 5-hydroxytryptamine receptor 2A (Homo sapiens, UniProt P28223); test: Antagonist activity at recombinant human full-length 5HT2A receptor expressed in CHOK1 cells assessed as inhibition of serotonin-induced inositol phosphate accumulation at 1 uM measured after 30 mins by TR-FRET assay relative to control; format: functional, cell-based; conditions: CHO-K1
[18] = AUCt in Sprague-Dawley rat at 5 mg/kg, iv by LC-MS/MS analysis; format: ADME, organism-based; conditions: in vivo
hERG (KCNH2) = hERG (KCNH2) (Homo sapiens, UniProt Q12809); test: Inhibition of human ERG at 10 uM relative to control
Mus musculus [19] = test: Protection against 10 week HFD-induced liver disease in C57BL/6J mouse assessed as increase in lead body mass at 100 mg/kg, ip administered daily for 10 weeks and measured post last dose by NMR analysis; format: functional, organism-based
[20] = biological target: T3, 5-hydroxytryptamine receptor 2A; test: Antagonist activity at 5HT2A receptor (unknown origin) expressed in HEK293 cells assessed as inhibition of serotonin hydrochloride-induced calcium flux preincubated for 1 hr followed by serotonin hydrochloride addition by calcium 6 dye based FLIPR assay; format: functional, cell-based
[21] = biological target: T4, 5-hydroxytryptamine receptor 2C (Homo sapiens) (UniProt P28335); test: Antagonist activity at recombinant human 5HT2C receptor expressed in HEK293 cells assessed as inhibition of serotonin-induced inositol phosphate accumulation at 1 uM measured after 30 mins by HTRF assay relative to control; format: functional, cell-based
T4 sequence (whole entry): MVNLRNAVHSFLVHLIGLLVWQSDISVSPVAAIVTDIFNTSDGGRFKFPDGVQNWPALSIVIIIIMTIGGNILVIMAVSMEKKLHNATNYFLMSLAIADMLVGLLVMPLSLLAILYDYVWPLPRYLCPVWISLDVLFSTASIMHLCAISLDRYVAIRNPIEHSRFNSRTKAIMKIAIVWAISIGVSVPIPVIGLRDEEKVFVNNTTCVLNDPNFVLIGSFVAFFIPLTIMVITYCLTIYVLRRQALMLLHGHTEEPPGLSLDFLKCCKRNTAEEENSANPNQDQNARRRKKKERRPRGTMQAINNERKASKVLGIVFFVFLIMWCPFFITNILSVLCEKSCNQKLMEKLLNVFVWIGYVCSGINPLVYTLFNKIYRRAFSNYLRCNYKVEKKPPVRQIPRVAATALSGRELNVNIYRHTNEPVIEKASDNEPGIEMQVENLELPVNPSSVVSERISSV

Mus musculus [22] = test: Protection against 10 week HFD-induced liver disease in C57BL/6J mouse assessed as reduction in adipocyte size of inguinal white adipose tissue at 50 to 100 mg/kg, ip administered daily for 10 weeks and measured post last dose by H and E staining based histological analysis; format: functional, organism-based
HFL1 = test: Cytotoxicity against human HFL1 cells; format: cell-based
[23] = biological target: 5-hydroxytryptamine receptor 7 (Homo sapiens) (UniProt P34969); test: Antagonist activity at recombinant human 5HT7 receptor expressed in CHOK1 cells assessed as inhibition of serotonin-induced cAMP accumulation at 1 uM measured after 30 mins by HTRF assay relative to control; format: functional, cell-based; conditions: CHO-K1
Mus musculus [24] = test: Protection against 10 week HFD-induced liver disease in C57BL/6J mouse assessed as reduction in hepatic triglyceride accumulation at 50 to 100 mg/kg, ip administered daily for 10 weeks and measured post last dose by triglyceride reagent based colorimetric analysis; format: functional, organism-based
Mus musculus [25] = test: Protection against 10 week HFD-induced liver disease in C57BL/6J mouse assessed as reduction in brown adipose tissue fat mass at 50 to 100 mg/kg, ip administered daily for 10 weeks and measured post last dose by H and E staining based histological analysis; format: functional, organism-based
[26] = Drug level in ICR mouse brain at 5 mg/kg, iv measured after 0.5 hrs by LC-MS/MS analysis; format: ADME, organism-based; conditions: read-out: Drug uptake
Mus musculus [27] = test: Protection against 10 week HFD-induced liver disease in C57BL/6J mouse assessed as reduction in body weight gain at 100 mg/kg, ip administered daily for 10 weeks and measured post HFD stimulation; format: functional, organism-based
Mus musculus [28] = test: Protection against 10 week HFD-induced liver disease in C57BL/6J mouse assessed as reduction in epididymal white adipose tissue fat mass at 50 to 100 mg/kg, ip administered daily for 10 weeks and measured post last dose by H and E staining based histological analysis; format: functional, organism-based
Mus musculus [29] = test: Protection against 10 week HFD-induced liver disease in C57BL/6J mouse assessed as reduction in inguinal white adipose tissue fat mass at 50 to 100 mg/kg, ip administered daily for 10 weeks and measured post last dose by H and E staining based histological analysis; format: functional, organism-based
[30] = Drug level in ICR mouse brain at 10 mg/kg, ip measured after 0.5 hrs by LC-MS/MS analysis; conditions: read-out: Drug uptake
[31] = Ratio of drug level in brain to plasma of ICR mouse at 10 mg/kg, ip measured after 0.5 hrs by LC-MS/MS analysis; conditions: read-out: BPR
[32] = Plasma concentration in ICR mouse at 10 mg/kg, ip measured after 0.5 hrs by LC-MS/MS analysis

T3 sequence (P28223 whole entry): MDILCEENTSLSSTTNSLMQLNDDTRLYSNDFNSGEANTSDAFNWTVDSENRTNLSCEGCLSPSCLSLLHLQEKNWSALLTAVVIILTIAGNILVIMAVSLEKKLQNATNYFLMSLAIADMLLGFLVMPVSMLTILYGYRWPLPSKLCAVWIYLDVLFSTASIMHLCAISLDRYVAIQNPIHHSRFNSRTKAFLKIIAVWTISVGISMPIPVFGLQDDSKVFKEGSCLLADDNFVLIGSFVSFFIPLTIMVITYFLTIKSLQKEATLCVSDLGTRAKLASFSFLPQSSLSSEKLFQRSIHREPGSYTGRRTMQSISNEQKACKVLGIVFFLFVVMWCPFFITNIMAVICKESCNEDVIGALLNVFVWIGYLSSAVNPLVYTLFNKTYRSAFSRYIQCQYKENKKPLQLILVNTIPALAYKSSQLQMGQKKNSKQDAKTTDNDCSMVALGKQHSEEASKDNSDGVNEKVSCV
5-hydroxytryptamine receptor 2B (Homo sapiens), sequence (P41595 whole entry): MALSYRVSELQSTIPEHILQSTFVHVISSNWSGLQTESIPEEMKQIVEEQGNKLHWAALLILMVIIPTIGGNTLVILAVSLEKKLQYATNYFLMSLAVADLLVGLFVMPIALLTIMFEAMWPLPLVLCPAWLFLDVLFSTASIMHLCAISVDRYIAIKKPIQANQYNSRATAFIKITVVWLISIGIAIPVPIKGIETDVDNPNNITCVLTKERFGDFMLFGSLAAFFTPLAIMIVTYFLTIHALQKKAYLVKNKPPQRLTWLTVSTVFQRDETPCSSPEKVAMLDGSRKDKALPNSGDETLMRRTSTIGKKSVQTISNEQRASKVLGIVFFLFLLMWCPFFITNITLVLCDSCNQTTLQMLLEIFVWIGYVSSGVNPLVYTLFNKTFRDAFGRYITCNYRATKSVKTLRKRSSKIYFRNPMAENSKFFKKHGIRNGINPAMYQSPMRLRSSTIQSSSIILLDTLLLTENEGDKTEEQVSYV
hERG (KCNH2), sequence (Q12809 whole entry): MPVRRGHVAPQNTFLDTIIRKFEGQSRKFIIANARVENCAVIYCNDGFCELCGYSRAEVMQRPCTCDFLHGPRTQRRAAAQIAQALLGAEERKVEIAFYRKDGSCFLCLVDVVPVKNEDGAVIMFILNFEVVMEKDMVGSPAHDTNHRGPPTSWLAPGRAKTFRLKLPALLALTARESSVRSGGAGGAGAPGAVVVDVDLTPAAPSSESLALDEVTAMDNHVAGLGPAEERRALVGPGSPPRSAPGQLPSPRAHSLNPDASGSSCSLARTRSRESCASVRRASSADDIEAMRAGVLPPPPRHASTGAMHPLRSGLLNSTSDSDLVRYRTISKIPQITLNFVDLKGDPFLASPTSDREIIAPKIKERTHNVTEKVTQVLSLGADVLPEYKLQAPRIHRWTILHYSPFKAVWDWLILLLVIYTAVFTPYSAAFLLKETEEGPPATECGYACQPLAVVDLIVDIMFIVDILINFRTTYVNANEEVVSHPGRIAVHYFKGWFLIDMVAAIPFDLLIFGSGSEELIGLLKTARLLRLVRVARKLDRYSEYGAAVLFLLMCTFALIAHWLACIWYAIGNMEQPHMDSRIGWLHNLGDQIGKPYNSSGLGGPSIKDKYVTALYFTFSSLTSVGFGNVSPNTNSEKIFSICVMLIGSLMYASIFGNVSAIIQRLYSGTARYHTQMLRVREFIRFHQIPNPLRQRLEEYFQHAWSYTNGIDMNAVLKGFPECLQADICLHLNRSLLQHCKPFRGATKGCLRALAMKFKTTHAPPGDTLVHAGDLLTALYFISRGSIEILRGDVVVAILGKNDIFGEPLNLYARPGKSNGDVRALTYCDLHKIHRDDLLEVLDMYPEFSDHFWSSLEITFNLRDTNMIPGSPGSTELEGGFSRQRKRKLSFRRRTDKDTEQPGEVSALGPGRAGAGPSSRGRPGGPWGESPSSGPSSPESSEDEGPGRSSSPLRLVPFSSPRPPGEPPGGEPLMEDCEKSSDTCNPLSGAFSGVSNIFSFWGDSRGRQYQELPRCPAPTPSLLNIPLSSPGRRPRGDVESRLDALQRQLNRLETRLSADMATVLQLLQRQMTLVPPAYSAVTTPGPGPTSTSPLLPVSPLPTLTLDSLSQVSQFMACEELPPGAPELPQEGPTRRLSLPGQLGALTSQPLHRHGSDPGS
5-hydroxytryptamine receptor 1B (Homo sapiens), sequence (P28222 whole entry): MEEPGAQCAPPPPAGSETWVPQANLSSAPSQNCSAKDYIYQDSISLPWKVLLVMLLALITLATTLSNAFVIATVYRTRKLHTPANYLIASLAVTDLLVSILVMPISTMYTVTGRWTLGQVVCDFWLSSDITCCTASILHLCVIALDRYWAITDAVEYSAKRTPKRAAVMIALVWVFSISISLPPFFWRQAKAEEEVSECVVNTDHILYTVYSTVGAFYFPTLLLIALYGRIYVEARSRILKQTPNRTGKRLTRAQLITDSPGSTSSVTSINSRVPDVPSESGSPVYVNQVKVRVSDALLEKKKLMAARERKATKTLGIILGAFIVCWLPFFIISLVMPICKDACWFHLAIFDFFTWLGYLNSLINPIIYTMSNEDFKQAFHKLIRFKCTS
5-hydroxytryptamine receptor 7 (Homo sapiens), sequence (P34969 whole entry): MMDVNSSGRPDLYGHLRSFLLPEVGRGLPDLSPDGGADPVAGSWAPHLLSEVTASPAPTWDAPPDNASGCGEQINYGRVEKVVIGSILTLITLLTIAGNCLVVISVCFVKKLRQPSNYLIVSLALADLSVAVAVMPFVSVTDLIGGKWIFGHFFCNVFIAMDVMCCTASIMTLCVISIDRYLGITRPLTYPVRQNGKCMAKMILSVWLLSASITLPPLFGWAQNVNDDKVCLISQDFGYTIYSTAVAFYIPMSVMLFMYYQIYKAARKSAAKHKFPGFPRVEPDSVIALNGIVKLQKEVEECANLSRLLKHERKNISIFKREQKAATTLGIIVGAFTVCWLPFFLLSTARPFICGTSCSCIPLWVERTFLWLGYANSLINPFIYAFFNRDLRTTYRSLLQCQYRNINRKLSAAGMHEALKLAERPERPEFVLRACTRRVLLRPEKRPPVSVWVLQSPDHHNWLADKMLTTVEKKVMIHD

## O=C1CC2(CCCC2)CC(=O)N1CCCCN1CCN(c2ncccn2)CC1 [BUSPIRONE]
[1]
  remaining at 0.5 h: 4%
In vitro
  remaining at 0.5 h: 15%

## CC(C)COc1ccc(CNC(=O)N(Cc2ccc(F)cc2)C2CCN(C(=O)CC[C@H](N)C(=O)O)CC2)cc1
[2]
  half-life: 16.9 h
Mus musculus [3]
  Activity: Active
Mus musculus [4]
  Activity: Active
Mus musculus [5]
  Activity: Active
[6]
  inhibition: 7%
[1]
  remaining at 0.5 h: 89%
[7]
  concentration at 0.5 h: 416 ng/mL
[8]
  inhibition: -2.8%
Mus musculus [9]
  Activity: Active
NIH3T3
  IC50: 18.2 µM
[10]
  Kp at 0.5 h: 0.038
Mus musculus [11]
  Activity: Active
CHO-K1
  IC50: 51 µM
[12]
  inhibition: 6%
[13]
  inhibition: -5%
[14]
  AUC(0-inf): 2030 ng·h/mL
[15]
  clearance: 41 mL/min/kg
Vero
  IC50: 54.7 µM
[16]
  Vd: 11 L/kg
L929
  IC50: 64 µM
[17]
  inhibition: 93%
[18]
  AUC(0-t): 1910 ng·h/mL
hERG (KCNH2)
  inhibition at 10 µM: 18.7%
Mus musculus [19]
  Activity: Active
[20]
  IC50: 0.00835 µM
[21]
  inhibition: 63.8%
Mus musculus [22]
  Activity: Active
In vitro
  remaining at 0.5 h: 84%
HFL1
  IC50: 55.2 µM
[23]
  inhibition: 6.3%
Mus musculus [24]
  Activity: Active
Mus musculus [25]
  Activity: Active
[26]
  concentration at 0.5 h: 15.1 ng/g
Mus musculus [27]
  Activity: Active
Mus musculus [28]
  Activity: Active
Mus musculus [29]
  Activity: Active

## CC(C)COc1ccc(CNC(=O)N(Cc2ccc(F)cc2)C2CCNCC2)cc1
[20]
  IC50: 0.0006 µM

## CC(C)COc1ccc(CNC(=O)N(Cc2ccc(F)cc2)C2CCN(C(=O)C[C@H](N)C(=O)O)CC2)cc1
[20]
  IC50: 0.0347 µM

## CC(C)COc1ccc(CNC(=O)N(Cc2ccc(F)cc2)C2CCN(C(=S)NC(C)C)CC2)cc1
[20]
  IC50: 1.13 µM

## CC(C)COc1ccc(CNC(=O)N(Cc2ccc(F)cc2)C2CCN(C)CC2)cc1 [PIMAVANSERIN]
[30]
  concentration at 0.5 h: 3010 ng/g
[31]
  Kp at 0.5 h: 4.98
[32]
  concentration at 0.5 h: 612 ng/mL
